Results reported in the supplement of paper PMC11061612.

What was measured:
Carboplatin = compound: C1CC(C1)(C(=O)[O-])C(=O)[O-].N.N.[Pt+2] [Carboplatin]; conditions: max 10 µM
In short: (§1)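 Cancer cell lines were seeded in 1536-well plates in 7.5 μl DMEM/F12 or RPMI with 10% FBS, held 24 hours at 37°C and 5% CO2, then dosed for 72 hours (final DMSO typically 0.2%). Viability was read by CellTiter-Glo 2.0 luminescence and scaled between blank-well and DMSO-well means. The single-agent IC50 comes from dose responses fitted to a two-parameter logistic curve with a non-linear mixed effects model.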

AZD5363 = compound: C1CN(CCC1(C(=O)N[C@@H](CCO)C2=CC=C(C=C2)Cl)N)C3=NC=NC4=C3C=CN4 [AZD5363]; conditions: max 10 µM
In short: as §1

AZD1775 = compound: C=CCn1c(=O)c2cnc(Nc3ccc(N4CCN(C)CC4)cc3)nc2n1-c1cccc(C(C)(C)O)n1 [AZD1775]; conditions: max 3 µM
In short: as §1

Trametinib = compound: CC(=O)Nc1cccc(-n2c(=O)n(C3CC3)c(=O)c3c(Nc4ccc(I)cc4F)n(C)c(=O)c(C)c32)c1 [Trametinib]; conditions: max 1 µM
In short: as §1

Paclitaxel = compound: CC(=O)O[C@H]1C(=O)[C@@]2(C)[C@H]([C@H](OC(=O)c3ccccc3)[C@]3(O)C[C@H](OC(=O)[C@H](O)[C@@H](NC(=O)c4ccccc4)c4ccccc4)C(C)=C1C3(C)C)[C@]1(OC(C)=O)CO[C@@H]1C[C@@H]2O [Paclitaxel]; conditions: max 3 µM
In short: as §1

Palbociclib = compound: CC(=O)c1c(C)c2cnc(Nc3ccc(N4CCNCC4)cn3)nc2n(C2CCCC2)c1=O [Palbociclib]; conditions: max 10 µM
In short: as §1

AZD1390 = compound: CC(C)n1c(=O)n(C)c2cnc3cc(F)c(-c4ccc(OCCCN5CCCCC5)nc4)cc3c21 [AZD1390]; conditions: max 0.3 µM
In short: as §1

Venetoclax = compound: CC1(C)CCC(CN2CCN(c3ccc(C(=O)NS(=O)(=O)c4ccc(NCC5CCOCC5)c([N+](=O)[O-])c4)c(Oc4cnc5[nH]ccc5c4)c3)CC2)=C(c2ccc(Cl)cc2)C1 [Venetoclax]; conditions: max 1 µM
In short: as §1

Dasatinib = compound: CC1=C(C(=CC=C1)Cl)NC(=O)C2=CN=C(S2)NC3=CC(=NC(=N3)C)N4CCN(CC4)CCO [Dasatinib]; conditions: max 2 µM
In short: as §1

SG3199 = compound: CC1=CN2[C@@H](C1)C=NC3=CC(=C(C=C3C2=O)OC)OCCCCCOC4=C(C=C5C(=C4)N=C[C@@H]6CC(=CN6C5=O)C)OC [SG3199]; conditions: max 0.001 µM
In short: as §1

AZD2811 = compound: CCN(CCO)CCCOc1ccc2c(Nc3cc(CC(=O)Nc4cccc(F)c4)[nH]n3)ncnc2c1 [AZD2811]; conditions: max 1 µM
In short: as §1

SN-38 = compound: CCc1c2c(nc3ccc(O)cc13)-c1cc3c(c(=O)n1C2)COC(=O)[C@]3(O)CC [SN-38]; conditions: max 0.3 µM
In short: as §1

AZD0156 = compound: CN(C)CCCOc1ccc(-c2ccc3ncc4c(c3c2)n(C2CCOCC2)c(=O)n4C)cn1 [AZD0156]; conditions: max 3 µM
In short: as §1

AZD4320 = compound: CN(CC[C@H](CSC1=CC=CC=C1)NC2=C(C=C(C=C2)S(=O)(=O)NC(=O)C3=CC=C(C=C3)N4CCC(CC4)[C@H](C5=CC=CC=C5C6=CC=C(C=C6)Cl)O)S(=O)(=O)C(F)(F)F)CCO [AZD4320]; conditions: max 1 µM
In short: as §1

Alisertib = compound: COc1cc(Nc2ncc3c(n2)-c2ccc(Cl)cc2C(c2c(F)cccc2OC)=NC3)ccc1C(=O)O [Alisertib]; conditions: max 10 µM
In short: as §1

Etoposide = compound: COc1cc([C@@H]2c3cc4c(cc3[C@@H](O[C@@H]3O[C@@H]5CO[C@@H](C)O[C@H]5[C@H](O)[C@H]3O)[C@H]3COC(=O)[C@H]23)OCO4)cc(OC)c1O [Etoposide]; conditions: max 10 µM
In short: as §1

Gefitinib = compound: COc1cc2ncnc(Nc3ccc(F)c(Cl)c3)c2cc1OCCCN1CCOCC1 [Gefitinib]; conditions: max 10 µM
In short: as §1

Prexasertib = compound: COc1cccc(OCCCN)c1-c1cc(Nc2cnc(C#N)cn2)n[nH]1 [Prexasertib]; conditions: max 1 µM
In short: as §1

Doxorubicin = compound: COc1cccc2c1C(=O)c1c(O)c3c(c(O)c1C2=O)C[C@@](O)(C(=O)CO)C[C@@H]3O[C@H]1C[C@H](N)[C@H](O)[C@H](C)O1 [Doxorubicin]; conditions: max 1 µM
In short: as §1

AZD5153 = compound: COc1nnc2ccc(N3CCC(c4ccc(OCCN5CCN(C)C(=O)[C@H]5C)cc4)CC3)nn12 [AZD5153]; conditions: max 1 µM
In short: as §1

Lapatinib = compound: CS(=O)(=O)CCNCc1ccc(-c2ccc3ncnc(Nc4ccc(OCc5cccc(F)c5)c(Cl)c4)c3c2)o1 [Lapatinib]; conditions: max 10 µM
In short: as §1

AZD8186 = compound: C[C@@H](Nc1cc(F)cc(F)c1)c1cc(C(=O)N(C)C)cc2c(=O)cc(N3CCOCC3)oc12 [AZD8186]; conditions: max 10 µM
In short: as §1

Crizotinib = compound: C[C@@H](Oc1cc(-c2cnn(C3CCNCC3)c2)cnc1N)c1c(Cl)ccc(F)c1Cl [Crizotinib]; conditions: max 10 µM
In short: as §1

Savolitinib = compound: C[C@@H](c1ccc2nccn2c1)n1nnc2ncc(-c3cnn(C)c3)nc21 [Savolitinib]; conditions: max 1 µM
In short: as §1

AZD6738 = compound: C[C@@H]1COCCN1C2=NC(=NC(=C2)C3(CC3)[S@](=N)(=O)C)C4=C5C=CNC5=NC=C4 [AZD6738]; conditions: max 10 µM
In short: as §1

AZD5991 = compound: Cc1c2c(nn1C)CSCc1cc(n(C)n1)CSc1cc(c3ccccc3c1)OCCCc1c(C(=O)O)n(C)c3c-2c(Cl)ccc13 [AZD5991]; conditions: max 1 µM
In short: as §1

AZD7648 = compound: Cc1cc2ncnn2cc1Nc1ncc2c(n1)n(C1CCOCC1)c(=O)n2C [AZD7648]; conditions: max 10 µM
In short: as §1

Taselisib = compound: Cc1nc(-c2cn3c(n2)-c2ccc(-c4cnn(C(C)(C)C(N)=O)c4)cc2OCC3)n(C(C)C)n1 [Taselisib]; conditions: max 10 µM
In short: as §1

Selumetinib = compound: Cn1cnc2c(F)c(Nc3ccc(Br)cc3Cl)c(C(=O)NOCCO)cc21 [Selumetinib]; conditions: max 10 µM
In short: as §1

SRA737 = compound: N#Cc1cnc(Nc2cc(NC[C@H]3CNCCO3)c(C(F)(F)F)cn2)cn1 [SRA737]; conditions: max 10 µM
In short: as §1

MK-2206 = compound: NC1(c2ccc(-c3nc4ccn5c(=O)[nH]nc5c4cc3-c3ccccc3)cc2)CCC1 [MK-2206]; conditions: max 10 µM
In short: as §1

Gemcitabine = compound: Nc1ccn([C@@H]2O[C@H](CO)[C@@H](O)C2(F)F)c(=O)n1 [Gemcitabine]; conditions: max 0.3 µM
In short: as §1

[1] = compound: O=C(Nc1ccc2[nH]nc(-c3ccncc3)c2c1)[C@@H]1CCN(CC(=O)N2CCN(c3ccc(-c4ncccn4)cc3)CC2)C1; conditions: max 5 µM
In short: as §1

Olaparib = compound: O=C(c1cc(Cc2n[nH]c(=O)c3ccccc23)ccc1F)N1CCN(C(=O)C2CC2)CC1 [Olaparib]; conditions: max 10 µM
In short: as §1

5-Fluorouracil = compound: O=c1[nH]cc(F)c(=O)[nH]1 [5-Fluorouracil]; conditions: max 20 µM
In short: as §1

ACHN (Kidney Carcinoma)
IC50, cell viability 72 h (Carboplatin): > 10000 nM | IC50, cell viability 72 h (AZD5363): > 10000 nM | IC50, cell viability 72 h (AZD1775): 116 nM | IC50, cell viability 72 h (Trametinib): > 1000 nM | IC50, cell viability 72 h (Paclitaxel): 461 nM | IC50, cell viability 72 h (Palbociclib): 4940 nM | IC50, cell viability 72 h (AZD1390): > 300 nM | IC50, cell viability 72 h (Venetoclax): > 1000 nM | IC50, cell viability 72 h (Dasatinib): 179 nM | IC50, cell viability 72 h (SG3199): > 1 nM | IC50, cell viability 72 h (AZD2811): > 1000 nM | IC50, cell viability 72 h (SN-38): 12.7 nM | IC50, cell viability 72 h (AZD0156): > 3000 nM | IC50, cell viability 72 h (AZD4320): > 1000 nM | IC50, cell viability 72 h (Alisertib): 9510 nM | IC50, cell viability 72 h (Etoposide): 5500 nM | IC50, cell viability 72 h (Gefitinib): 3430 nM | IC50, cell viability 72 h (Prexasertib): 10.8 nM | IC50, cell viability 72 h (Doxorubicin): 264 nM | IC50, cell viability 72 h (AZD5153): 623 nM | IC50, cell viability 72 h (Lapatinib): 8520 nM | IC50, cell viability 72 h (AZD8186): > 10000 nM | IC50, cell viability 72 h (Crizotinib): > 10000 nM | IC50, cell viability 72 h (Savolitinib): > 1000 nM | IC50, cell viability 72 h (AZD6738): 970 nM | IC50, cell viability 72 h (AZD5991): > 1000 nM | IC50, cell viability 72 h (AZD7648): > 10000 nM | IC50, cell viability 72 h (Taselisib): 6330 nM | IC50, cell viability 72 h (Selumetinib): > 10000 nM | IC50, cell viability 72 h (SRA737): 1580 nM | IC50, cell viability 72 h (MK-2206): > 10000 nM | IC50, cell viability 72 h (Gemcitabine): 20.1 nM | IC50, cell viability 72 h [1]: > 5000 nM | IC50, cell viability 72 h (Olaparib): > 10000 nM | IC50, cell viability 72 h (5-Fluorouracil): > 20000 nM

AMO-1 (Plasma Cell Myeloma)
IC50, cell viability 72 h (Carboplatin): > 10000 nM | IC50, cell viability 72 h (AZD5363): 6030 nM | IC50, cell viability 72 h (AZD1775): 633 nM | IC50, cell viability 72 h (Trametinib): > 1000 nM | IC50, cell viability 72 h (Paclitaxel): < 3 nM | IC50, cell viability 72 h (Palbociclib): > 10000 nM | IC50, cell viability 72 h (AZD1390): > 300 nM | IC50, cell viability 72 h (Venetoclax): > 1000 nM | IC50, cell viability 72 h (Dasatinib): > 2000 nM | IC50, cell viability 72 h (SG3199): > 1 nM | IC50, cell viability 72 h (AZD2811): > 1000 nM | IC50, cell viability 72 h (SN-38): 18.4 nM | IC50, cell viability 72 h (AZD0156): > 3000 nM | IC50, cell viability 72 h (AZD4320): > 1000 nM | IC50, cell viability 72 h (Alisertib): 192 nM | IC50, cell viability 72 h (Etoposide): 1680 nM | IC50, cell viability 72 h (Gefitinib): > 10000 nM | IC50, cell viability 72 h (Prexasertib): 8.82 nM | IC50, cell viability 72 h (Doxorubicin): 169 nM | IC50, cell viability 72 h (AZD5153): 36.6 nM | IC50, cell viability 72 h (Lapatinib): 6710 nM | IC50, cell viability 72 h (AZD8186): > 10000 nM | IC50, cell viability 72 h (Crizotinib): 3000 nM | IC50, cell viability 72 h (Savolitinib): > 1000 nM | IC50, cell viability 72 h (AZD6738): 3180 nM | IC50, cell viability 72 h (AZD5991): 18.6 nM | IC50, cell viability 72 h (AZD7648): > 10000 nM | IC50, cell viability 72 h (Taselisib): 3410 nM | IC50, cell viability 72 h (Selumetinib): > 10000 nM | IC50, cell viability 72 h (SRA737): 2010 nM | IC50, cell viability 72 h (MK-2206): 1150 nM | IC50, cell viability 72 h (Gemcitabine): 15.3 nM | IC50, cell viability 72 h [1]: > 5000 nM | IC50, cell viability 72 h (Olaparib): > 10000 nM | IC50, cell viability 72 h (5-Fluorouracil): > 20000 nM
